From US9102678B2, “Compounds and methods for inhibiting mitotic progression” (Millennium Pharmaceuticals, Inc., priority 2004, dated 2015)

These compounds were tested against T1, recombinant murine Aurora A enzyme (Mus musculus, UniProt P97477) (assay: Aurora A DELFIA Kinase Assay). Settings: mouse Aurora A, 250 μM ATP; threshold less than or equal to 100 nM; read-out: IC50.
T1 construct: hexahistidine (His6) (N); made in house; host or cells: insect cells, baculovirus (Bac-to-Bac, Invitrogen)
Format: biochemical

T1 sequence (P97477 whole entry): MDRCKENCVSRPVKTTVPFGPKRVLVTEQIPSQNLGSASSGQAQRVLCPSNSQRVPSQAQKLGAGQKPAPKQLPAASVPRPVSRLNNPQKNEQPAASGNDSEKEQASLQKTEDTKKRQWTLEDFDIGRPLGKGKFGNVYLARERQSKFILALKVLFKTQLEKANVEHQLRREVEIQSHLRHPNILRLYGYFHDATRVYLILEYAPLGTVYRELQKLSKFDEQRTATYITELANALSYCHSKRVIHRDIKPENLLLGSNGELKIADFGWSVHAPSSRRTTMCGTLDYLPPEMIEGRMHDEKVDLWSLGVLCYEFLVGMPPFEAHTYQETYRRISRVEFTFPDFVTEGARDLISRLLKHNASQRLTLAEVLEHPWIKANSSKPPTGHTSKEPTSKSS

IC50, ≤ 100 nM:
O=C(c1ccc(Nc2ncc3c(n2)-c2ccc(Cl)cc2C(c2ccccc2F)=NC3)cc1)N1CCN(CCN2CCCCC2)CC1 [Compound I-182, {4-[9-Chloro-7-(2-fluoro-phenyl)-5H-benzo[c]pyrimido[4,5-e]azepin-2-ylamino]-phenyl}-[4-(2-piperidin-1-yl-ethyl)-piperazin-1-yl]-methanone]
CN(C)C1CCN(C(=O)c2ccc(Nc3ncc4c(n3)-c3ccc(Cl)cc3C(c3c(F)cccc3F)=NC4)cc2)CC1 [Compound I-183, {4-[9-Chloro-7-(2,6-difluoro-phenyl)-5H-benzo[c]pyrimido[4,5-e]azepin-2-ylamino]-phenyl}-(4-dimethylamino-piperidin-1-yl)-methanone]
CN1CCN(C(=O)c2ccc(Nc3ncc4c(n3)-c3ccc(Cl)cc3C(c3c(F)cccc3F)=NC4)cc2)CC1 [Compound I-184, {4-[9-Chloro-7-(2,6-difluoro-phenyl)-5H-benzo[c]pyrimido[4,5-e]azepin-2-ylamino]-phenyl}-(4-methyl-piperazin-1-yl)-methanone]
CN(C)CCCN(C)C(=O)c1ccc(Nc2ncc3c(n2)-c2ccc(Cl)cc2C(c2c(F)cccc2F)=NC3)cc1 [Compound I-185, 4-[9-Chloro-7-(2,6-difluoro-phenyl)-5H-benzo[c]pyrimido[4,5-e]azepin-2-ylamino]-N-(3-dimethylamino-propyl)-N-methyl-benzamide]
COc1cccc(F)c1C1=NCc2cnc(Nc3ccc(C(=O)N4CCC(N(C)C)CC4)cc3)nc2-c2ccc(Cl)cc21 [Compound I-186, {4-[9-Chloro-7-(2-fluoro-6-methoxy-phenyl)-5H-benzo[c]pyrimido-[4,5-e]azepin-2-ylamino]-phenyl}-(4-dimethylamino-piperidin-1-yl)-methanone]
CCCN(CCC)CCN1CCN(C(=O)c2ccc(Nc3ncc4c(n3)-c3ccc(Cl)cc3C(c3ccccc3F)=NC4)cc2)CC1 [Compound I-187, {4-[9-Chloro-7-(2-fluoro-phenyl)-5H-benzo[c]pyrimido[4,5-e]azepin-2-ylamino]-phenyl}-[4-(2-dipropylamino-ethyl)-piperazin-1-yl]-methanone]
O=C(c1ccc(Nc2ncc3c(n2)-c2ccc(Cl)cc2C(c2ccccc2F)=NC3)cc1)N1CCN(CCCN2CCCC2)CC1 [Compound I-188, {4-[9-Chloro-7-(2-fluoro-phenyl)-5H-benzo[c]pyrimido[4,5-e]azepin-2-ylamino]-phenyl}-[4-(3-pyrrolidin-1-yl-propyl)-piperazin-1-yl]-methanone]
O=C(c1ccc(Nc2ncc3c(n2)-c2ccc(Cl)cc2C(c2ccccc2F)=NC3)cc1)N1CCN(CCN2CCOCC2)CC1 [Compound I-189, {4-[9-Chloro-7-(2-fluoro-phenyl)-5H-benzo[c]pyrimido[4,5-e]azepin-2-ylamino]-phenyl}-[4-(2-morpholin-4-yl-ethyl)-piperazin-1-yl]-methanone]
COc1cccc(F)c1C1=NCc2cnc(Nc3ccc(C(=O)O)cc3)nc2-c2ccc(Cl)cc21 [Compound I-190, 4-[9-Chloro-7-(2-fluoro-6-methoxy-phenyl)-5H-benzo[c]pyrimido[4,5-e]azepin-2-ylamino]-benzoic acid]
C[C@H]1CN(C(=O)c2ccc(Nc3ncc4c(n3)-c3ccc(Cl)cc3C(c3c(F)cccc3F)=NC4)cc2)CCN1 [Compound I-191, {4-[9-Chloro-7-(2,6-difluoro-phenyl)-5H-benzo[c]pyrimido[4,5-e]azepin-2-ylamino]-phenyl}-(3(S)-methyl-piperazin-1-yl)-methanone]
NC1CN(C(=O)c2ccc(Nc3ncc4c(n3)-c3ccc(Cl)cc3C(c3ccccc3F)=NC4)cc2)C1 [Compound I-192, (3-Amino-azetidin-1-yl)-{4-[9-chloro-7-(2-fluoro-phenyl)-5H-benzo[c]pyrimido[4,5-e]azepin-2-ylamino]-phenyl}-methanone]
CN(C)CC1CN(C(=O)c2ccc(Nc3ncc4c(n3)-c3ccc(Cl)cc3C(c3ccccc3F)=NC4)cc2)C1 [Compound I-193, {4-[9-Chloro-7-(2-fluoro-phenyl)-5H-benzo[c]pyrimido[4,5-e]azepin-2-ylamino]-phenyl}-(3-dimethylaminomethyl-azetidin-1-yl)-methanone]
C[C@@H]1CN(C(=O)c2ccc(Nc3ncc4c(n3)-c3ccc(Cl)cc3C(c3c(F)cccc3F)=NC4)cc2)CCN1 [Compound I-194, {4-[9-Chloro-7-(2,6-difluoro-phenyl)-5H-benzo[c]pyrimido[4,5-e]azepin-2-ylamino]-phenyl}-(3(R)-methyl-piperazin-1-yl)-methanone]
O=C(c1ccc(Nc2ncc3c(n2)-c2ccc(Cl)cc2C(c2c(F)cccc2F)=NC3)cc1)N1CCNCC1 [Compound I-195, {4-[9-Chloro-7-(2,6-difluoro-phenyl)-5H-benzo[c]pyrimido[4,5-e]azepin-2-ylamino]-phenyl}-piperazin-1-yl-methanone]
NC1CCN(C(=O)c2ccc(Nc3ncc4c(n3)-c3ccc(Cl)cc3C(c3c(F)cccc3F)=NC4)cc2)C1 (stereo not drawn) [Compound I-196, (3-Amino-pyrrolidin-1-yl)-{4-[9-chloro-7-(2,6-difluoro-phenyl)-5H-benzo[c]pyrimido[4,5-e]azepin-2-ylamino]-phenyl}-methanone]
CNC1CCN(C(=O)c2ccc(Nc3ncc4c(n3)-c3ccc(Cl)cc3C(c3c(F)cccc3F)=NC4)cc2)C1 (stereo not drawn) [Compound I-197, {4-[9-Chloro-7-(2,6-difluoro-phenyl)-5H-benzo[c]pyrimido[4,5-e]azepin-2-ylamino]-phenyl}-(3-methylamino-pyrrolidin-1-yl)-methanone]
CNCCCN(C)C(=O)c1ccc(Nc2ncc3c(n2)-c2ccc(Cl)cc2C(c2c(F)cccc2F)=NC3)cc1 [Compound I-198, 4-[9-Chloro-7-(2,6-difluoro-phenyl)-5H-benzo[c]pyrimido[4,5-e]azepin-2-ylamino]-N-methyl-N-(3-methylamino-propyl)-benzamide]
CNC1CCN(C(=O)c2ccc(Nc3ncc4c(n3)-c3ccc(Cl)cc3C(c3c(F)cccc3OC)=NC4)cc2)C1 (stereo not drawn) [Compound I-199, {4-[9-Chloro-7-(2-fluoro-6-methoxy-phenyl)-5H-benzo[c]pyrimido[4,5-e]azepin-2-ylamino]-phenyl}-(3-methylamino-pyrrolidin-1-yl)-methanone]
CN(C)C1CN(C(=O)c2cccc(Nc3ncc4c(n3)-c3ccc(Cl)cc3C(c3c(F)cccc3F)=NC4)c2)C1 [Compound I-204, 9-chloro-7-(2,6-difluorophenyl)-N-(3-{[3-(dimethylamino)azetidin-1-yl]carbonyl}phenyl)-5H-pyrimido[5,4-d][2]benzazepin-2-amine]
CN(C)C1CCN(C(=O)c2cccc(Nc3ncc4c(n3)-c3ccc(Cl)cc3C(c3c(F)cccc3F)=NC4)c2)CC1 [Compound I-205, 9-chloro-7-(2,6-difluorophenyl)-N-(3-{[4-(dimethylamino)piperidin-1-yl]carbonyl}phenyl)-5H-pyrimido[5,4-d][2]benzazepin-2-amine]
CN(C)C1CCN(C(=O)c2cccc(Nc3ncc4c(n3)-c3ccc(Cl)cc3C(c3c(F)cccc3F)=NC4)c2)C1 (stereo not drawn) [Compound I-206, 9-chloro-7-(2,6-difluorophenyl)-N-(3-{[3-(dimethylamino)pyrrolidin-1-yl]carbonyl}phenyl)-5H-pyrimido[5,4-d][2]benzazepin-2-amine]
CCN(CC)CCCN1CCN(C(=O)c2ccc(Nc3ncc4c(n3)-c3ccc(Cl)cc3C(c3ccccc3F)=NC4)cc2)CC1 [Compound I-208, 9-chloro-N-[4-({4-[3-(diethylamino)propyl]piperazin-1-yl}carbonyl)phenyl]-7-(2-fluorophenyl)-5H-pyrimido[5,4-d][2]benzazepin-2-amine]
CCN(CC)CCN1CCN(C(=O)c2ccc(Nc3ncc4c(n3)-c3ccc(Cl)cc3C(c3ccccc3F)=NC4)cc2)CC1 [Compound I-209, 9-chloro-N-[4-({4-[2-(diethylamino)ethyl]piperazin-1-yl}carbonyl)phenyl]-7-(2-fluorophenyl)-5H-pyrimido[5,4-d][2]benzazepin-2-amine]
CN(C)CCCN1CCN(C(=O)c2ccc(Nc3ncc4c(n3)-c3ccc(Cl)cc3C(c3ccccc3F)=NC4)cc2)CC1 [Compound I-210, 9-chloro-N-[4-({4-[3-(dimethylamino)propyl]piperazin-1-yl}carbonyl)phenyl]-7-(2-fluorophenyl)-5H-pyrimido[5,4-d][2]benzazepin-2-amine]
CN1CCCC(CN2CCN(C(=O)c3ccc(Nc4ncc5c(n4)-c4ccc(Cl)cc4C(c4ccccc4F)=NC5)cc3)CC2)C1 (stereo not drawn) [Compound I-211, 9-chloro-7-(2-fluorophenyl)-N-[4-({4-[(1-methylpiperidin-3-yl)methyl]piperazin-1-yl}carbonyl)phenyl]-5H-pyrimido[5,4-d][2]benzazepin-2-amine]
O=C(c1ccc(Nc2ncc3c(n2)-c2ccc(Cl)cc2C(c2ccccc2F)=NC3)cc1Cl)N1CCN(CCN2CCCC2)CC1 [Compound I-213, 9-chloro-N-(3-chloro-4-{[4-(2-pyrrolidin-1-ylethyl)piperazin-1-yl]carbonyl}phenyl)-7-(2-fluorophenyl)-5H-pyrimido[5,4-d][2]benzazepin-2-amine]
CC1CN(C(=O)c2ccc(Nc3ncc4c(n3)-c3ccc(Cl)cc3C(c3ccccc3F)=NC4)cc2Cl)CCN1 (stereo not drawn) [Compound I-214, 9-chloro-N-{3-chloro-4-[(3-methylpiperazin-1-yl)carbonyl]phenyl}-7-(2-fluorophenyl)-5H-pyrimido[5,4-d][2]benzazepin-2-amine]
